Data published in patent US8012949B2, “Bisphosphonate compounds and methods with enhanced potency for multiple targets including FPPS, GGPPS, and DPPS” (The Board of Trustees of the University of Illinois, priority 2004, dated 2011).
Like-named read-outs stand apart in the source and are kept apart here.

Experiments:
human FPPS = biological target: T1, human FPPS (Homo sapiens, UniProt P14324); assay: human FPPS enzyme inhibition; type: biochemical
T1 construct: made in house
T1 sequence (P14324 1-419): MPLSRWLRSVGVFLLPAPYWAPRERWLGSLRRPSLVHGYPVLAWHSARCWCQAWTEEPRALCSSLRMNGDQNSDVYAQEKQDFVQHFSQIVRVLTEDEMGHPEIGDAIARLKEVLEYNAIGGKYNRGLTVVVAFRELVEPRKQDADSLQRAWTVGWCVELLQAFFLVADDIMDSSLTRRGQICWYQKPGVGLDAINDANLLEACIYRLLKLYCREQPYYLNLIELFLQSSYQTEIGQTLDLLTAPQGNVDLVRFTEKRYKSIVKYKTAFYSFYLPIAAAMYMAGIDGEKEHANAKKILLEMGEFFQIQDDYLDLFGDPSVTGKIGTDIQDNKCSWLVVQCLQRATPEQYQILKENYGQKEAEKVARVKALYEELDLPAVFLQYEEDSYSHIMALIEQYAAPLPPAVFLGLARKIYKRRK
Source text: (§1) To test our polypharmaceutical hypothesis, we expressed three enzymes: human FPPS, GGPPS and DPPS, and tested each for their inhibition by a series of bisphosphonates.

[1] = biological target: T2, human recombinant geranylgeranyl diphosphate synthase (hGGPPS) (Homo sapiens, UniProt O95749); assay: Human recombinant GGPPS inhibition (radiometric assay); type: biochemical
T2 construct: made in house
T2 sequence (O95749 1-300): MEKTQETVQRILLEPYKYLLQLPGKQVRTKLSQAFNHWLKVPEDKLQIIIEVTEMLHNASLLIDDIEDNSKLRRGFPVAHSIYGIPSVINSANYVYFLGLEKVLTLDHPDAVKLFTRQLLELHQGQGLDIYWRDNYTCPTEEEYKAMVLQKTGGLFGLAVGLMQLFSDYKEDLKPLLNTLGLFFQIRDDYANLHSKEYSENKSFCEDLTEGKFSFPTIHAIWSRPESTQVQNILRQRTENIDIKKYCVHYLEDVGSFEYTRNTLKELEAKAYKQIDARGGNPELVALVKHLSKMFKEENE
Experimental: as §1
Human recombinant GGPPS inhibition. The purification of human recombinant geranylgeranyl diphosphate synthase (hGGPPS) followed the protocol reported previously^2. GGPPS inhibition by bisphosphonates was determined using the radiometric assay reported previously^2 with slight modification. […] IPP and incubated at 37° C. for 20 min. The reaction was terminated by the addition of 75 μL of HCl/MeOH. Following a second 20 min incubation at 37° C. to effectively hydrolyze the allylic pyrophosphates, the reaction mixtures were neutralized by the addition of 75 μL of 6 N NaOH and extracted with 500 μL of hexane. 200 μL of the organic phase was transferred to a scintillation vial for counting. The IC50 values were obtained by fitting the data to the dose-response curve in Origin 6.1 (OriginLab Corp., Northampton, Mass., www.OriginLab.com).

[2] = tested on: MCF-7 (breast adenocarcinoma); assay: MCF-7 cell growth inhibition (MTT), incl. FOH/GGOH rescue; type: cell-based, human; settings: for IC50: Homo sapiens, MCF7
[3] = tested on: NCI-H460 (lung large cell); assay: NCI-H460 cell growth inhibition (MTT); type: cell-based, human; settings: Homo sapiens, NCI-H460
Vγ2Vδ2 T cells = assay: γδ T cell activation (TNF-α release and proliferation); type: cell-based, human
Procedure, shortened: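 Vγ2Vδ2 T cell clones (CD4+ JN.24, CD4+ HF.2, CD8αα+ 12G12, CD4−8− HD.108) stimulated with phosphoantigens plus 0.05% glutaraldehyde-fixed APCs: CP.EBV B cells for CD4+ clones, Va-2 fibroblasts for others. TNF-α release and proliferation measured; curve minima from global fitting per experiment, maxima fitted per compound unconstrained.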

[4] = tested on: cancer cell growth (average); assay: Inhibition of cancer cell growth (average); type: cell-based; settings: Homo sapiens
Experimental: Compound 754 was synthesized and tested for activity.
Cell Growth Inhibition Assays. The human tumor cell lines MCF-7 (breast adenocarcinoma), NCI-H460 (lung large cell) and SF-268 (central nervous system glioblastoma) were obtained from the National Cancer Institute. All lines were cultured in RPMI-1640 medium supplemented with 10% fetal bovine serum and 2 mM L-glutamine at 37° C. in a 5% CO2 atmosphere with 100% humidity. A broth microdilution method was used to determine IC50 values for growth inhibition by each bisphosphonate. […] NBPs were typically initially dissolved in H2O (0.01 M) while NNBPs were typically dissolved in DMSO (0.01 M). Plates were then incubated for 4 days at 37° C. in a 5% CO2 atmosphere at 100% humidity after which an MTT ((3-(4,5-dimethylthiazole-2-yl)-2,5-diphenyltetrazolium bromide) cell proliferation assay (ATCC, Manassas, Va.) was used to obtain dose-response curves. The DMSO carrier had no effect on cell proliferation.

effect on FPPS (human FPPS): essentially no effect
Ki (human FPPS; Table 1, experimental, read-out: FPPS pKi (converted)): 5010 nM
effect on GGPPS [1]: good GGPPS inhibitor
Ki ([1]; Table 1, experimental, read-out: GGPPS pKi (converted)): 15.8 nM
IC50 ([2]; Table 1, experimental, read-out: MCF-7 pIC50 (converted)): 25100 nM
IC50 ([2]; read-out: IC50, inhibition of human breast cancer cell line MCF7): 401 nM
IC50 ([3]; Table 1, experimental, read-out: NCI-H460 pIC50 (converted)): 20000 nM
IC50 ([3]; read-out: IC50, inhibition of human lung cancer NCIH460): 672 nM
IC50 [4]: 500 nM
SMILES: CCCCCCCCCCOc1cccc(CC(O)(P(=O)(O)O)P(=O)(O)O)c1 [BPH-754]
rescue from growth inhibition by geranylgeraniol (GGOH) ([2]; GGOH 20 μM): rescued by GGOH
γδ T cell activation (Vγ2Vδ2 T cells): no effect
